The values below come from US20220257592A1, “METHODS OF TREATING CANCER” (HOFFMANN-LA ROCHE INC., priority 2019, published 2022).

The conditions of this series: human, in vivo.

Marks after values point to notes of the source that are not given here.

As for `CN1CCN(c2ccc(C(=O)Nc3n[nH]c4ccc(Cc5cc(F)cc(F)c5)cc34)c(NC3CCOCC3)c2)CC1` [Entrectinib, N-[5-(3,5-difluorobenzyl)-1H-indazol-3-yl]-4-(4-methyl-piperazin-1-yl)-2-(tetrahydro-pyran-4-ylamino)-benzamide], the “Lung infection, Grade ≥3” value was 6* %. For the same molecule, where the note is “both”, the “Dyspnea, Grade ≥3” value is listed as 6* %; the “Fatal event: completed suicide” value was 0.3%; the “Fatal event: dyspnea” value is on record as 0.6%; the “Fatal event: pneumonia” value stood at 0.6%. Besides, for the setting “both”, the “Fatal event: sepsis” value is on record as 0.6% and the “Fatal event: tumor lysis syndrome” value is on record as 0.3%.
